Laboratory results published in patent US8747740B2, “Process and apparatus for generating haloamine biocide” (Hercules Incorporated, priority 2007, dated 2014).

Assay: Stability of chloramine in aqueous solution
Format: physicochemical
Details: pH of about 10 to about 11; partially decomposes at higher concentrations or lower pH

For `NCl` [chloramine, Monochloramine], the “concentration up to which chloramine is stable” value was “up to 1,000 ppm”.
